Assay results: patent US8496942B2, “Therapeutic peptides and uses thereof” (priority 2006, dated 2013)
Where a SMILES comes first, the peptide text is derived from it.

B1: Interferon-gamma: interferon-gamma, positive control (protein, UniProt P01579 24-161, looked up)
Interferon gamma: QDPYVKEAENLKKYFNAGHSDVADNGTLFLGILKNWKEESDRKIMQSQIVSFYFKLFKNFKDDQSIQKSVETIKEDMNVKFFNSNKKKRDDFEKLTNYSVTDLNVQRKAIHELIQVMAELSPAAKTGKRKRSQMLFRG

Columns and labels:
[1] = test system: PBMCs; experiment: Induction of cytokine release from PBMCs (membrane antibody array); format: cell-based, human; conditions: PBMC medium, 4 hr, 100 nM peptide; for Relative concentration of IL-21: IFN-γ printed in place of LPS
Experimental: To determine whether inhibition of HIV replication by the peptide may be the result of induction of release of cytokines, cultured PBMCs were treated with one peptide embodiment of the present invention and, after 4 hr incubation, the medium was collected and assayed for changes in the amounts of 40 different cytokines. […] Approximately 3 million cells of frozen human PBMCs were thawed at 37° C. and transferred to a 50 mL conical tube where 8 mL of wash medium were added slowly. Then an additional 8 mL of wash medium were added and swirled to mix. The cells were then centrifuged at 330 g for 10 min, the supernatant was removed and the pellet was resuspended in 10 mL wash medium and centrifuged as above. The washed cells were then resuspended in RPMI-1640 medium containing 10% FBS to about 6 million cells per mL and 100 μL of the suspension were added into each well of a 96-well microtiter plate and incubated overnight at 37° C. in humidified 5% CO2. After 24 hr the medium was replaced with 200 μL fresh RPMI-1640 medium containing 10% FBS and incubated at 37° C. in humidified 5% CO2 for 2 days. For the data shown in TABLE 4, the peptide aliquot was then added to samples in duplicate at a final concentration of 100 nM and incubated at 37° C. in humidified 5% CO2 for 4 hr. For other experiments (data not included), the incubation was continued for 24 hr. The medium was then removed and stored at −80° C. The samples were analyzed for production of cytokines One set of control cells was not treated with an experimental agent.
Culture medium was removed for assay of cytokine levels with methods developed by RayBiotech, Inc. (Norcross, Ga.). In this technology, membrane arrays of antibodies against cytokines were incubated with samples of media. After washing, the array was incubated with a cocktail of all antibodies tagged with biotin. The membrane was then washed free of unbound antibodies and incubated with streptavidin labeled with a fluorescent dye. After a final wash, the membrane arrays were read in a fluorescence detector.

[2] = test system: HIV-1 clade B (Strain SF162) and clade C (Strain 97ZA009); experiment: Inhibition of HIV replication (neutralization) in PBMCs, p24 immunoassay; format: cell-based; conditions: 10 nM, FIGS. 13A-B
Experimental: The ability of the peptides to inhibit replication of HIV, both alone and in combination with antibodies, was tested as follows. Approximately 3 million cells of frozen human PBMCs, obtained from the California Blood Bank system, were thawed at 37° C. and transferred to a 50 mL conical tube where 8 mL of wash medium were added slowly. Then an additional 8 mL of wash medium were added and swirled to mix. The cells were then centrifuged at 330 g for 10 min, the supernatant was removed and the pellet was resuspended in 10 mL wash medium and centrifuged as above. The washed cells were then resuspended in RPMI-B medium containing 10% FBS, phytohemagglutin was added to 5 μg/mL, and cells were incubated at 37° C. for 24 hr in humidified 5% CO2. Cells were washed, suspended to about 6 million cells per mL, and 50 μL, (about 250,000 viable cells) were added to each test well. Then 100 ↑L of the test peptide were added at a concentration sufficient to provide the desired final concentration, followed by 100 μL of virus suspension (100 median tissue culture infective doses (TCID50s)). The assay plate was incubated 3 days at 37° C., then washed 3 times to remove unbound virus, and the cells were again suspended to 250 μL of medium. After an additional 24 hr of incubation, cells were lysed with Triton X-100 and each sample was assayed by an enzyme-linked immunoassay for virus protein p24 to quantify neutralization of virus. In another set of samples, antibody preparations were also added at a desired concentration (i.e., in addition to peptide).
This peptide construct was assayed for activity with two strains of HIV, clade B (Strain SF162) and clade C (Strain 97ZA009), both of which were provided by the California Department of Public Health (Richmond, Calif.). HIV-1 clade B is the major strain in North America and HIV-1 clade C is the major strain in central and southern Africa, India and China. The peptide was assayed either alone (−) or in combination with serum from HIV-infected individuals (+), as outlined below in TABLE 3.
(SEQ ID NO:7). The short bars represent neutralization by peptide alone. The long bars represent neutralization when pooled serum from HIV-positive patients was added along with the peptide. The bars represent averages from two experiments, each performed in quadruplicate. In one set of experiments, each peptide was assayed at 10 nM for the ability to inhibit replication. In the absence of peptide, the antibody preparation (serum) provided only about 30% neutralization (inhibition), at the same dilution (data not shown).

[3] = test system: macrophages in PBMC cultures; experiment: Phagocytosis of microspheres opsonized with anti-HIV antibodies; format: cell-based, human
Experimental: The ability of the peptide constructs to stimulate phagocytosis was assessed in two experiments. In the first experiment, a biotin-tagged peptide epitope of a surface protein of HIV-1 was bound to streptvidin on the surface of the beads. An antibody preparation that was raised against this epitope was then bound to the HIV peptide. The beads were then washed and presented to peripheral blood mononuclear cell (PBMC) cultures pretreated with peptides. […] In multiple control cultures, the number of beads within a macrophage-like cell ranged from 0 to 3. […] In the treated cultures, greater than 20 beads were counted in each phagocytic cell. After several subsequent and similar experiments were conducted, a phagocytic index was developed for the activity of macrophages to ingest microspheres opsonized with anti-HIV antibodies (TABLE 1).

[4] = test system: lectins (HP, GS, WGA, DB, UEA1, SNA1, MAA, concanavalin A); experiment: Lectin binding, panel of lectins (valency and specificity); conditions: seven lectins, equal number of HPSLK sequences per well, FIG. 4
Source text: Each assay used the same basic procedure.
FIG. 6 illustrates the specificity with which the quadravalent peptide constructs bind to different lectins.

[5] = test system: PBMC cultures; conditions: 72 hr, 1 mM, FIG. 15
Experimental: The ability of peptides to reduce viability of cells in PBMC cultures was assayed by adding a range of concentrations and testing viability by dye uptake. PBMC cultures were incubated with the peptides for 72 hr each at the increasing concentrations of 1 nM, 1 μM and 1 mM. Ability of cells to exclude a dye was an indication of viability as viable cells express green fluorescence and non-viable cells express orange fluorescence.

[6] = test system: peripheral blood mononuclear cells; experiment: Phagocytosis of opsonized microspheres by peptide-treated PBMCs (second experiment); format: cell-based, human; conditions: 50 nM peptide construct; interferon-gamma 100 ng/mL
Experimental: In a second experiment, streptavidin-coated microspheres, dyed with Dragon Green (0.97 μm diameter, Bangs Laboratories, Inc., Fishers, Ind.) were opsonized with rabbit anti-streptavidin serum (Sigma-Aldrich) and washed with phosphate buffered saline, pH 7.4 (PBS). Human PBMCs were cultured in microtiter plates in RPMI-1640 medium containing 10% fetal bovine serum (FBS) and 1:100 dilution of penicillin-streptomycin solution (Mediatech, Inc., Herndon, Va.) Cultures were washed to remove non-adherent cells, and fresh medium containing FBS, antibiotics, and 50 nM peptide was added to adherent cells for an additional 20 to 24 h. Microspheres were added at approximately a 10:1 ratio to total cells, and after an additional 30 to 60 min of incubation, a solution containing 2% formalin was added. […]
FIGS. 9A-I illustrate phagocytosis of opsonized microspheres by peptide-treated PBMCs. […] The experiment was quantified by counting the number of beads in the phagocytic cells (TABLE 2).
In order to establish that the bead-like material within the cells was indeed engulfed beads, fluorescence was examined. […] Cells were examined by both phase contrast microscopy (left panels) and fluorescence microscopy with blue excitation light (right panels). […]

Molecule	Relative concentration of IL-12p40 [1]	Relative concentration of IL-15 [1]	Relative concentration of IL-16 [1]	Relative concentration of IL-17 [1]	Relative concentration of sTNF RII [1]	inhibitory activity when assayed alone [2]	level of inhibition with antibodies added [2]	Phagocytosis Index [3]	Relative concentration of IL-21 [1]	Beads/cell (mean ± SD) [6]	other results
VGGGS: peptide construct containing four copies of the core sequence VGGGS	51 arbitrary units	130 arbitrary units	10 arbitrary units	24 arbitrary units	26 arbitrary units	substantial inhibitory activity	enhanced by adding antibodies	+++ (+++ = 15)	–	–	Relative concentration of ICAM-1 [1]: 89 arbitrary units; Relative concentration of IL-1α [1]: 291 arbitrary units; Relative concentration of IL-2 [1]: 125 arbitrary units; Relative concentration of IP-10 [1]: 321 arbitrary units; Relative concentration of RANTES [1]: 213 arbitrary units; Relative concentration of TIMP-2 [1]: 205 arbitrary units; Relative concentration of TNF-β [1]: 111 arbitrary units
single sequence: peptide with 1 arm containing the core sequence HPSLK	–	–	–	–	–	–	–	–	–	–	binding relative to the quadravalent peptide (set as 100%) [4]: much lesser extent
CC(C)C[C@H](NC(=O)[C@H](CO)NC(=O)[C@@H]1CCCN1C(=O)[C@@H](N)Cc1c[nH]cn1)C(=O)N[C@@H](CCCCN)C(=O)NCC(=O)NCC(=O)NCC(=O)N[C@@H](CO)C(=O)NCCCC[C@H](NC(=O)[C@H](CO)NC(=O)CNC(=O)CNC(=O)CNC(=O)[C@H](CCCCN)NC(=O)[C@H](CC(C)C)NC(=O)[C@H](CO)NC(=O)[C@@H]1CCCN1C(=O)[C@@H](N)Cc1c[nH]cn1)C(=O)NCCCC[C@H](NC(=O)[C@H](CCCCNC(=O)[C@H](CO)NC(=O)CNC(=O)CNC(=O)CNC(=O)[C@H](CCCCN)NC(=O)[C@H](CC(C)C)NC(=O)[C@H](CO)NC(=O)[C@@H]1CCCN1C(=O)[C@@H](N)Cc1c[nH]cn1)NC(=O)[C@H](CO)NC(=O)CNC(=O)CNC(=O)CNC(=O)[C@H](CCCCN)NC(=O)[C@H](CC(C)C)NC(=O)[C@H](CO)NC(=O)[C@@H]1CCCN1C(=O)[C@@H](N)Cc1c[nH]cn1)C(N)=O [HPSLK] (HELM PEPTIDE1{H.P.S.L.K.G.G.G.S.K.K.[am]}|PEPTIDE2{H.P.S.L.K.G.G.G.S.K}|PEPTIDE3{H.P.S.L.K.G.G.G.S}|PEPTIDE4{H.P.S.L.K.G.G.G.S}$PEPTIDE1,PEPTIDE4,10:R3-9:R2|PEPTIDE1,PEPTIDE2,11:R3-10:R2|PEPTIDE2,PEPTIDE3,10:R3-9:R2$$$V2.0)	–	–	–	–	–	–	–	–	–	–	viability of cells in PBMC cultures [5]: partially reduced viability
PSSNA: peptide construct containing four copies of the core sequence PSSNA	28 arbitrary units	153 arbitrary units	12 arbitrary units	21 arbitrary units	21 arbitrary units	substantial inhibitory activity	enhanced by adding antibodies	+++ (+++ = 15)	130 arbitrary units	–	Relative concentration of IL-4 [1]: 60 arbitrary units; Relative concentration of IL-8 [1]: 702 arbitrary units; Relative concentration of IL-12p70 [1]: 69 arbitrary units; Relative concentration of TNF-α [1]: 123 arbitrary units
VSNQH: peptide construct containing four copies of an inactive core sequence VSNQH, negative control (VNSQH) [reference compound]	–	–	–	–	–	–	–	–	–	1.3 ± 1.8	–
B1	–	–	–	–	–	–	–	+++ (+++ = 15)	(IFN-γ: 100) arbitrary units	35.8 ± 12.6	–
